# Measurements: patent US20260248826A1, “DRUG COMBINATION FOR TREATMENT OF PANCREATIC CANCER” (priority 2023, published 2026)
# Assays:
# [1] = test system: MIA-PaCa2 and PANC-1 pancreatic cancer cell lines; settings: after incubation with triptolide; cited from earlier work
# [2] = test system: S2-013, S2-VP10 and Hs766T; settings: metastatic lines; cited from earlier work
# [3] = test system: pancreatic tumor cells and CAFs; settings: cited from earlier work
# [4] = test system: S2-VP10 tumor cells; assay: Orthotopic S2-VP10 pancreatic tumor model in athymic nude mice; type: in vivo
# Description: A preclinical study of minnelide was conducted in mice. Female athymic nude mice (NCI nu/nu; 4 to 6 weeks old) were anesthetized with xylazine/ketamine, and S2-VP10 tumor cells embedded in Matrigel were implanted into the pancreatic tail (3×10^5 cells/mouse). Twelve days after tumor implantation (Day 0), animals were randomized to receive saline, nab-paclitaxel plus gemcitabine (Gem/Abx; 250/25 mg/kg), or minnelide plus nab-paclitaxel plus gemcitabine (Minn/Gem/Abx; 0.15/250/25 mg/kg or 0.21/250/25 mg/kg) (10 animals/group). Minnelide was administered once daily (QD) by oral gavage (PO). Treatment continued until Day 28 when animals were sacrificed.
# [5] = Phase 1 study of minnelide given intravenously in patients with Advanced GI Tumors; type: in vivo, human; settings: IV
# Source text: Intravenous Minnelide. Phase 1, Multi-Center, Open-Label, Dose-Escalation, Safety, Pharmacokinetic, and Pharmacodynamic Study of minnelide given intravenously daily for 21 days followed by 7 days off schedule in patients with Advanced GI Tumors. A second dosing schedule of minnelide given intravenously QD for 5 days with 2 days off for three weeks followed by a 7-day rest period was also explored during this study. A total of 45 patients enrolled in the Phase 1 study, however 3 patients were not dosed with study drug. The remaining 42 patients were dosed in the study. The primary reason for the discontinuation of treatment was disease progression. There were 6 deaths in the study, but these occurred after the study drug had ended and were within the 30-day follow-up period. […] One patient who died from respiratory failure, and this was also found to be not related to use of the study drug.
# [6] = Phase 1 study of Minnelide Capsules alone or in combination with protein-bound paclitaxel in patients with Advanced Solid Tumors; type: in vivo, human
# Source text: Oral Minnelide. A Phase 1, Multi-Center, Open-Label, Dose-Escalation, Safety, Pharmacokinetic, and Pharmacodynamic Study of Minnelide™ Capsules given alone or in combination with protein-bound paclitaxel in patients with Advanced Solid Tumors.
# A total of 51 patients have been enrolled and dosed in the Phase 1 study, of whom […] were evaluable for safety (34 in the monotherapy regimen and 16 in the combination regimen). Twenty-nine patients have completed treatment in the monotherapy regimen, and 6 dose escalations have occurred. In the monotherapy regimen, one DLT has been observed, which occurred in the 1.25 mg cohort. […] As a result of this DLT, and out of an abundance of caution, 3 additional patients were enrolled in the 1.0 mg cohort.
# A total of 17 patients had been enrolled in combination therapy regimen. Two DLTs have been observed: one at the 0.25 mg minnelide and 125 mg/m^2 protein-bound paclitaxel dose level and one at the 0.25 mg minnelide and 100 mg/m^2 protein-bound paclitaxel dose level. […] A total of 2 SAEs occurred in this patient, neither of which were deemed related to the IP. As this was the first patient in the combination regimen to receive protein-bound paclitaxel with minnelide, the combination regimen was put on enrolment hold until further escalation parameters were introduced. The second DLT occurred in the first patient of the 0.25 mg minnelide and 100 mg/m^2 protein-bound paclitaxel cohort: a Grade 5 event of sepsis.
# [7] = test system: pancreatic and ovarian tumor cells; assay: In vitro antitumor activity (activated with alkaline phosphatase to release triptolide); type: cell-based
# [8] = test system: pancreatic and ovarian cancer; assay: Daily administration in models of pancreatic and ovarian cancer; type: in vivo; settings: administered daily
# [9] = Blood counts of patients during minnelide dosing and withholding; type: in vivo, human
# Source text: A drop in blood counts is usually seen within the first 5-7 days of the start of minnelide and resolves in 4-8 days of withholding of minnelide.
# CBC with differential was done on days 1, 8, 15, 22 and more frequently as clinically indicated. Patient were hospitalized for close monitoring when the ANC level was <1000 mm^3 (grade 3 or higher) or platelet was <100,000 cells/mm^3 at any time. Minnelide™ Capsules would not resume until the ANC level was ≥1500 mm^3 or platelet was ≥100,000 cells/mm^3.
# [10] = test system: extracellular matrix (ECM) of the pancreatic tumors; settings: by downregulating hyaluronan synthesis and preventing collagen cross linking; cited from earlier work
# [11] = test system: transforming growth factor-β (TGFβ) signaling in cancer associated fibroblasts (CAFs); settings: dose of 0.2 mg/kg; cited from earlier work
# [12] = Day 28, minnelide 0.15 mg/kg QD PO added to Gem/Abx 250/25 mg/kg, compared with Gem/Abx alone
# [13] = Day 28, minnelide 0.21 mg/kg QD PO added to Gem/Abx 250/25 mg/kg, compared with Gem/Abx alone
# [14] = overall, daily oral minnelide concurrently with Gem/Abx, compared with minnelide or Gem/Abx alone
# [15] = oral, monotherapy and combination
smiles,measurement,setting,value
CC(C)[C@]12O[C@H]1[C@@H]1O[C@]13[C@]1(O[C@H]1C[C@H]1C4=C(CC[C@@]13C)C(=O)OC4)[C@@H]2O [triptolide],caspase-3 activity,[1],significantly increased
same,cytochrome c release from mitochondria into the cytosol,[1],significantly increased
same,autophagic cell death,[2],induces autophagic cell death
same,"SE-associated genes (BRD4, MYC, RNA Pol II, Collagen 1) expression","[3]; both cell types, mRNA and protein levels",downregulation
same,cytotoxicity,[3]; both pancreatic tumor cells and CAFs,cytotoxic
"CC(C)[C@]12O[C@H]1[C@@H]1O[C@]13[C@]1(O[C@H]1C[C@H]1C4=C(CC[C@@]13C)C(=O)OC4)[C@@H]2OCOP(=O)([O-])[O-].[Na+].[Na+] [minnelide, disodium; [(1S,2S,4S,5S,7S,8R,9R,11S,13S)-1-methyl-17-oxo-7-propan-2-yl-3,6,10,16-tetraoxaheptacyclo[11.7.0.0^2,4.0^2,9.0^5.7.09^,11.0^14,18]icos-14 (18)-en-8-yl]oxymethyl phosphate]",tumor volumes,[4]; [12],further reduced
same,tumor weights,[4]; [12],further reduced
same,tumor volumes,[4]; [13],further reduced
same,tumor weights,[4]; [13],further reduced
same,tumor volumes,[4]; [14],decreased
same,tumor weights,[4]; [14],decreased
same,"Anemia and thrombocytopenia Grade 3 and 4, drug related, patients",[5],22%
same,Serious Adverse Events related to the study drug,[5],six
same,"Serious Adverse Events, total",[5],28
same,"TEAEs leading to discontinuation probably related to study drug, considered DLTs",[5],two
same,"neutropenia grade 3 and 4 of short duration, drug related",[5],observed at all dose levels
same,patients with Serious Adverse Events,[5],17
same,patients with at least 1 AE considered related to the study drug,[5],32
same,"patients with neutropenic fever and neutropenic infection, drug related",[5],three
same,deaths in the study,"[5]; 42 patients dosed, within 30-day follow-up, not related to study drug",6
same,patients who discontinued the study drug due to TEAEs,[5]; all Grade 3,3
same,incidence of most commonly reported TEAEs regardless of causality,"[5]; hypoalbuminemia, anemia, hypoproteinemia, fatigue, neutropenia, leukopenia, thrombocytopenia, nausea, hypocalcemia, diarrhea, hyperphosphatemia, constipation, vomiting, hyponatremia, lymphopenia, abdominal pain, dehydration, hyperglycemia, peripheral edema, hypophosphatemia, headache",> 20%
same,"other possibly related side effects of any grade, patients","[5]; nausea, vomiting, diarrhea, constipation, anorexia, stomatitis, cerebellar toxicity, embolism, dyspnea",≤ 3%
same,time to resolution of neutropenia,[5]; not receiving treatment,within a couple of days
same,DLTs in five additional patients,[6]; 0.25 mg minnelide and 100 mg/m^2 protein-bound paclitaxel cohort,no DLTs observed
same,DLTs observed,"[6]; 0.25 mg minnelide and 100 mg/m^2 protein-bound paclitaxel dose level, Grade 5 sepsis",one
same,DLTs observed,[6]; 0.25 mg minnelide and 125 mg/m^2 protein-bound paclitaxel dose level,one
same,DLTs observed,"[6]; combination regimen with protein-bound paclitaxel, 17 patients",Two
same,DLT observed,"[6]; oral monotherapy regimen, in the 1.25 mg cohort, Grade 5 sepsis",one
same,related SAEs by type,"[6]; oral, combination therapy with protein-bound paclitaxel",one event each of Grade 5 sepsis and Grade 2 esophagitis
same,SAEs related to the investigational product,[6]; [15],8
same,"SAEs, total",[6]; [15],45
same,patients with SAEs,[6]; [15],25
same,related SAEs by type,"[6]; oral, patients on monotherapy","1 event each of Grade 5 sepsis, Grade 4 sepsis, Grade 3 nausea, Grade 3 polymicrobial bacteraemia, Grade 3 intractable nausea, Grade 3 hypokalaemia, and Grade 2 enteritis"
same,AE incidence: Lower extremity oedema,[6]; regardless of causality,24%
same,AE incidence: abdominal distension,[6]; regardless of causality,12%
same,AE incidence: abdominal pain,[6]; regardless of causality,30%
same,AE incidence: anemia,[6]; regardless of causality,18%
same,AE incidence: back pain,[6]; regardless of causality,12%
same,AE incidence: chills,[6]; regardless of causality,12%
same,AE incidence: constipation,[6]; regardless of causality,24%
same,AE incidence: dehydration,[6]; regardless of causality,18%
same,AE incidence: dizziness,[6]; regardless of causality,12%
same,AE incidence: dyspnoea,[6]; regardless of causality,12%
same,AE incidence: fatigue,[6]; regardless of causality,18%
same,AE incidence: gastroesophageal reflux disease,[6]; regardless of causality,12%
same,AE incidence: leukopenia,[6]; regardless of causality,12%
same,AE incidence: local swelling,[6]; regardless of causality,18%
same,AE incidence: nausea,[6]; regardless of causality,24%
same,AE incidence: neutropenia,[6]; regardless of causality,30%
same,AE incidence: neutrophil count decreased,[6]; regardless of causality,13%
same,AE incidence: pain,[6]; regardless of causality,12%
same,AE incidence: pleural effusion,[6]; regardless of causality,12%
same,AE incidence: pyrexia,[6]; regardless of causality,24%
same,AE incidence: skin irritation,[6]; regardless of causality,12%
same,AE incidence: vomiting,[6]; regardless of causality,18%
same,antitumor activity in vitro,[7],potent antitumor activity
same,animal survival,[8],markedly improved
same,tumor volumes,[8],significantly reduced
same,tumor weights,[8],significantly reduced
same,time to drop in blood counts,[9]; from the start of minnelide,5 to 7 days
same,time to resolution of drop in blood counts,[9]; withholding of minnelide,4 to 8 days
same,extracellular matrix (ECM) of pancreatic tumors,[10],depleted
same,TGFβ signaling in CAFs,[11],disrupts
